{
  "source": "patent US5677322A",
  "about": "“Maillard reaction inhibitor” (Otsuka Pharmaceutical Co., Ltd., priority 1993, dated 1997)",
  "system": "Lysozyme",
  "assay": "Inhibition of Maillard reaction: suppression of lysozyme dimer formation (lysozyme + fructose, SDS-PAGE)",
  "type": "biochemical",
  "conditions": "inhibition ratio of test compound to aminoguanidine (positive control); lysozyme 10 mg/ml, fructose 100 mM, 0.2M sodium phosphate pH 7.4, 37° C., 3 days; dimer amount by SDS-PAGE",
  "procedure": "Lysozyme and fructose were dissolved in a buffer solution of 0.2M sodium phosphate (pH 7.4) to respectively give concentrations of 10 mg/ml and 100 mM. After incubating at 37° C. for 3 days, a definite amount of the mixture was taken out and electrophoresed with the use of SDS-PAGE. After the completion of the electrophoresis, the gel was stained with 0.2% Coomassie Brilliant Blue R-250 and the amount of the dimer thus formed was determined.\nEach of the test compounds was added before the initiation of the incubation and the effect of suppressing the formation of the dimer was examined at various concentrations, whereby the IC50 value was obtained. As a positive control, aminoguanidine, which is a known glycation inhibitor, was employed and the inhibition ratio of the test compound to aminoguanidine (IC50 of aminoguanidine/IC50 of test compound) was calculated.",
  "data": [
    {"compound": "2-(4-Acetoamidobenzenesulfonohydrazono)-5-(4-benzyloxybenzyl)imidazolidin- 4-one [Test compound 76]", "values": [
      {"measurement": "IC50 of aminoguanidine/IC50 of test compound", "value": 7.9}
    ]},
    {"compound": "2-Cyclohexylmethylenehydrazono-5-(N-phenylcarbamoylmethyl)thiazolidin-4-one [Test compound 83]", "values": [
      {"measurement": "IC50 of aminoguanidine/IC50 of test compound", "value": 0.6}
    ]},
    {"compound": "2-Isopropylidenehydrazino-4-(3-pyridyl)thiazole [Test compound 89]", "values": [
      {"measurement": "IC50 of aminoguanidine/IC50 of test compound", "value": 53}
    ]},
    {"compound": "2-Isopropylidenehydrazino-4-methylthiazole [Test compound 23]", "values": [
      {"measurement": "IC50 of aminoguanidine/IC50 of test compound", "value": 3.5}
    ]},
    {"compound": "2-Isopropylidenehydrazono-5(R)-(N-phenylcarbamoylmethyl)thiazolidin-4-one [Test compound 109]", "values": [
      {"measurement": "IC50 of aminoguanidine/IC50 of test compound", "value": 2.8}
    ]},
    {"compound": "2-Isopropylidenehydrazono-5(S)-(N-phenylcarbamoylmethyl)thiazolidin-4-one [Test compound 110]", "values": [
      {"measurement": "IC50 of aminoguanidine/IC50 of test compound", "value": 3.1}
    ]},
    {"compound": "2-Isopropylidenehydrazono-5-(N-morpholinocarbamoylmethyl)thiazolidin-4-one [Test compound 69]", "values": [
      {"measurement": "IC50 of aminoguanidine/IC50 of test compound", "value": 1.1}
    ]},
    {"compound": "2-Isopropylidenehydrazono-5-[N-(1-naphthyl)carbamoylmethyl]thiazolidin-4-one [Test compound 59]", "values": [
      {"measurement": "IC50 of aminoguanidine/IC50 of test compound", "value": 0.8}
    ]},
    {"compound": "2-Isopropylidenehydrazono-5-[N-(2-methoxycarbonyl-4-methylphenyl)carbamoylmethyl]imidazolidin-4-one [Test compound 96]", "values": [
      {"measurement": "IC50 of aminoguanidine/IC50 of test compound", "value": 3.9}
    ]},
    {"compound": "2-Isopropylidenehydrazono-5-[N-(2-methyl-5-methoxycarbonylphenyl)carbamoylmethyl]thiazolidin-4-one [Test compound 84]", "values": [
      {"measurement": "IC50 of aminoguanidine/IC50 of test compound", "value": 3.5}
    ]},
    {"compound": "2-Isopropylidenehydrazono-5-[N-(3,4,5-trichlorophenyl)carbamoylmethyl]thiazolidin-4-one [Test compound 57]", "values": [
      {"measurement": "IC50 of aminoguanidine/IC50 of test compound", "value": 0.8}
    ]},
    {"compound": "2-Isopropylidenehydrazono-5-[N-(4-methylthiophenyl)carbamoylmethyl]thiazolidin-4-one [Test compound 55]", "values": [
      {"measurement": "IC50 of aminoguanidine/IC50 of test compound", "value": 5.3}
    ]},
    {"compound": "2-Isopropylidenehydrazono-5-{N-[1-methoxycarbonyl-2-(3-indolyl)ethyl]carbamoylmethyl}thiazolidin-4-one [Test compound 102]", "values": [
      {"measurement": "IC50 of aminoguanidine/IC50 of test compound", "value": 4.3}
    ]},
    {"compound": "4-[4-(4-Chlorobenzyloxy)phenyl]-2-isopropylidenehydrazinothiazole [Test compound 27]", "values": [
      {"measurement": "IC50 of aminoguanidine/IC50 of test compound", "value": 3.1}
    ]},
    {"compound": "5-(4-Benzyloxybenzyl)-2-isopropylidenehydrazonothiazolidin-4-one [Test compound 12]", "values": [
      {"measurement": "IC50 of aminoguanidine/IC50 of test compound", "value": 4.4}
    ]},
    {"compound": "5-(N-carboxymethylcarbamoylmethyl)-2-isopropylidenehydrazonothiazolidin-4- one [Test compound 47]", "values": [
      {"measurement": "IC50 of aminoguanidine/IC50 of test compound", "value": 1.7}
    ]},
    {"compound": "5-(N-ethoxycarbonylmethylcarbamoylmethyl)-2-isopropylidenehydrazonothiazolidin-4-one [Test compound 19]", "values": [
      {"measurement": "IC50 of aminoguanidine/IC50 of test compound", "value": 2.5}
    ]},
    {"compound": "5-(N-isopropylcarbamoylmethyl)-2-isopropylidenehydrazonothiazolidin-4-one [Test compound 31]", "values": [
      {"measurement": "IC50 of aminoguanidine/IC50 of test compound", "value": 0.6}
    ]},
    {"compound": "5-[N-(1-carboxy-3-methylbutyl)carbamoylmethyl]-2-isopropylidenehydrazonothiazolidin-4-one [Test compound 103]", "values": [
      {"measurement": "IC50 of aminoguanidine/IC50 of test compound", "value": 1.7}
    ]},
    {"compound": "5-[N-(1-ethoxycarbonyl-3-methylbutyl)carbamoylmethyl]-2-isopropylidenehydrazonothiazolidin-4-one [Test compound 97]", "values": [
      {"measurement": "IC50 of aminoguanidine/IC50 of test compound", "value": 2.3}
    ]},
    {"compound": "5-[N-(2-carboxy-4-methylphenyl)carbamoylmethyl]-2-isopropylidenehydrazonothiazolidin-4-one [Test compound 54]", "values": [
      {"measurement": "IC50 of aminoguanidine/IC50 of test compound", "value": 4.2}
    ]},
    {"compound": "5-[N-(2-carboxymethylphenyl)carbamoylmethyl]-2-isopropylidenehydrazonothiazolidin-4-one [Test compound 108]", "values": [
      {"measurement": "IC50 of aminoguanidine/IC50 of test compound", "value": 3.2}
    ]},
    {"compound": "5-[N-(2-carboxyphenyl)carbamoylmethyl]-2-isopropylidenehydrazonothiazolidin-4-one [Test compound 92]", "values": [
      {"measurement": "IC50 of aminoguanidine/IC50 of test compound", "value": 0.94}
    ]},
    {"compound": "5-[N-(3-ethoxycarbonylphenyl)carbamoylmethyl]-2-isopropylidenehydrazonothiazolidin-4-one [Test compound 105]", "values": [
      {"measurement": "IC50 of aminoguanidine/IC50 of test compound", "value": 4.2}
    ]},
    {"compound": "5-[N-(4-bromophenyl)carbamoylmethyl]-2-isopropylidenehydrazonothiazolidin- 4-one [Test compound 56]", "values": [
      {"measurement": "IC50 of aminoguanidine/IC50 of test compound", "value": 10.2}
    ]},
    {"compound": "5-[N-(4-carboxyphenyl)carbamoylmethyl]-2-isopropylidenehydrazonothiazolidin-4-one [Test compound 16]", "values": [
      {"measurement": "IC50 of aminoguanidine/IC50 of test compound", "value": 3.1}
    ]},
    {"compound": "5-[N-(5-carboxy-2-methylphenyl)carbamoylmethyl]-2-isopropylidenehydrazonothiazolidin-4-one [Test compound 91]", "values": [
      {"measurement": "IC50 of aminoguanidine/IC50 of test compound", "value": 1.6}
    ]},
    {"compound": "5-{N-[1-carboxy-2-(4-benzyloxyphenyl)ethyl]carbamoylmethyl}-2-isopropylidenehydrazonothiazolidin-4-one [Test compound 101]", "values": [
      {"measurement": "IC50 of aminoguanidine/IC50 of test compound", "value": 1.5}
    ]},
    {"compound": "CC(C)=NN=C1NC(=O)C(Cc2ccc(OCc3ccccc3)cc2)N1", "note": "(stereo not shown) [Test compound 1, 5-(4-Benzyloxybenzyl)-2-isopropylidenehydrazonoimidazolidin-4-one]", "values": [
      {"measurement": "IC50 of aminoguanidine/IC50 of test compound", "value": 3.6}
    ]},
    {"compound": "CC(C)=NN=C1NC(=O)C(C)N1", "note": "(stereo not shown) [Test compound 2, 2-Isopropylidenehydrazono-5-methylimidazolidin-4-one]", "values": [
      {"measurement": "IC50 of aminoguanidine/IC50 of test compound", "value": 2.8}
    ]},
    {"compound": "CC(C)=NN=C1NC(=O)C(Cc2ccccc2)N1", "note": "(stereo not shown) [Test compound 3, 5-Benzyl-2-isopropylidenehydrazonoimidazolidin-4-one]", "values": [
      {"measurement": "IC50 of aminoguanidine/IC50 of test compound", "value": 1.6}
    ]},
    {"compound": "CC(C)=NN=C1NC(=O)C(Cc2ccc(O)cc2)N1", "note": "(stereo not shown) [Test compound 4, 5-(4-Hydroxybenzyl)-2-isopropylidenehydrazonoimidazolidin-4-one]", "values": [
      {"measurement": "IC50 of aminoguanidine/IC50 of test compound", "value": 4.8}
    ]},
    {"compound": "CC(C)=NN=C1NC(=O)C(Cc2ccc(OCc3c(Cl)cccc3Cl)cc2)N1", "note": "(stereo not shown) [Test compound 5, 5-[4-(2,6-Dichlorobenzyloxy)benzyl]-2-isopropylidenehydrazonoimidazolidin-4-one]", "values": [
      {"measurement": "IC50 of aminoguanidine/IC50 of test compound", "value": 8.0}
    ]},
    {"compound": "CC(C)=NN=C1NC(=O)C(Cc2ccc(OCc3ccc(Cl)cc3)cc2)N1", "note": "(stereo not shown) [Test compound 6, 5-[4-(4-Chlorobenzyloxy)benzyl]-2-isopropylidenehydrazonoimidazolidin-4-one]", "values": [
      {"measurement": "IC50 of aminoguanidine/IC50 of test compound", "value": 8.3}
    ]},
    {"compound": "CC(C)=NN=C1NC(=O)C(c2ccc(O)cc2)N1", "note": "(stereo not shown) [Test compound 7, 5-(4-Hydroxyphenyl)-2-isopropylidenehydrazonoimidazolidin-4-one]", "values": [
      {"measurement": "IC50 of aminoguanidine/IC50 of test compound", "value": 1.1}
    ]},
    {"compound": "CC(C)=NN=C1NC(Cc2ccc(O)cc2)C(=O)N1Cc1ccccc1", "note": "(stereo not shown) [Test compound 9, 3-Benzyl-5-(4-hydroxybenzyl)-2-isopropylidenehydrazonoimidazolidin-4-one]", "values": [
      {"measurement": "IC50 of aminoguanidine/IC50 of test compound", "value": 1.3}
    ]},
    {"compound": "CC(C)=NN=C1NC(=O)C(Cc2ccc(Sc3ccccc3)cc2)N1", "note": "(stereo not shown) [Test compound 10, 2-Isopropylidenehydrazono-5-(4-phenylthiobenzyl)imidazolidin-4-one]", "values": [
      {"measurement": "IC50 of aminoguanidine/IC50 of test compound", "value": 5.4}
    ]},
    {"compound": "CSc1ccc(CC2SC(=NN=C(C)C)NC2=O)cc1", "note": "(stereo not shown) [Test compound 11, 2-isopropylidenehydrazono-5-(4-methylthiobenzyl)thiazolidin-4-one]", "values": [
      {"measurement": "IC50 of aminoguanidine/IC50 of test compound", "value": 1.2}
    ]},
    {"compound": "CCOC(=O)c1ccc(NC(=O)CC2SC(=NN=C(C)C)NC2=O)cc1", "note": "(stereo not shown) [Test compound 15, 5-[N-(4-ethoxycarbonylphenyl)carbamoylmethyl]-2-isopropylidenehydrazonothiazolidin-4-one]", "values": [
      {"measurement": "IC50 of aminoguanidine/IC50 of test compound", "value": 1.2}
    ]},
    {"compound": "CC(C)=NN=C1NC(=O)C(CC(=O)NC2CCCCC2)S1", "note": "(stereo not shown) [Test compound 18, 5-(N-cyclohexylcarbamoylmethyl)-2-isopropylidenehydrazonothiazolidin-4-one]", "values": [
      {"measurement": "IC50 of aminoguanidine/IC50 of test compound", "value": 1.5}
    ]},
    {"compound": "CCOC(=O)CN1C(=O)C(CC(=O)O)SC1=NN=C(C)C", "note": "(stereo not shown) [Test compound 20, 5-Carboxymethyl-3-ethoxycarbonylmethyl-2-isopropylidenehydrazonothiazolidin-4-one]", "values": [
      {"measurement": "IC50 of aminoguanidine/IC50 of test compound", "value": 3.0}
    ]},
    {"compound": "O=C1CN2C(=NN1)NC(=O)C2COCc1ccccc1", "note": "(stereo not shown) [Test compound 29, 9-Benzyloxymethyl-1,4,5,7-tetraazabicyclo[4.3.0]nonan-5-ene-3,8-dione]", "values": [
      {"measurement": "IC50 of aminoguanidine/IC50 of test compound", "value": 0.6}
    ]},
    {"compound": "CC(C)=NN=C1NC(=O)C(CC(=O)NCc2ccccc2)S1", "note": "(stereo not shown) [Test compound 30, 5-(N-Benzylcarbamoylmethyl)-2-isopropylidenehydrazonothiazolidin-4-one]", "values": [
      {"measurement": "IC50 of aminoguanidine/IC50 of test compound", "value": 3.5}
    ]},
    {"compound": "CC(C)=NN=C1NC(=O)C(CC(=O)Nc2ccccc2)S1", "note": "(stereo not shown) [Test compound 32, 2-isopropylidenehydrazono-5-(N-phenylcarbamoylmethyl)thiazolidin-4-one]", "values": [
      {"measurement": "IC50 of aminoguanidine/IC50 of test compound", "value": 55}
    ]},
    {"compound": "CC(C)=NN=C1NC(=O)C(Cc2ccc([N+](=O)[O-])cc2)N1", "note": "(stereo not shown) [Test compound 33, 2-Isopropylidenehydrazono-5-(4-nitrobenzyl)imidazolidin-4-one]", "values": [
      {"measurement": "IC50 of aminoguanidine/IC50 of test compound", "value": 2.4}
    ]},
    {"compound": "CC(C)=NN=C1NC(=O)C(Cc2ccc(OCC3CCCCC3)cc2)N1", "note": "(stereo not shown) [Test compound 35, 5-[4-(Cyclohexylmethyloxy)benzyl]-2-isopropylidenehydrazonoimidazolidin-4-one]", "values": [
      {"measurement": "IC50 of aminoguanidine/IC50 of test compound", "value": 0.8}
    ]}
  ]
}
